Experimental data taken from the supplement of paper PMC10307832.

Key:
Assay in all cases: relative viability (nuclei count vs DMSO), 5 days (fraction); higher = more cells survive
HCC-78 = system: HCC-78
Summary of the method: (§1)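 Values are medians from duplicate plates. Each reflects relative viability, defined as the nuclei count of treated wells over that of vehicle wells. Lung cancer cell lines in 1536-well plates were pin-tool dosed one day after seeding with one drug alone or with a fixed anchor-drug dose plus five library-drug doses (not always all listed) in √10 steps, then fixed, stained and imaged at 4× after 5 days.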

NCI-H1975 = system: NCI-H1975
Summary of the method: as §1

LXF-289 = system: LXF-289
Summary of the method: as §1

PC-3 [JPC-3] = system: PC-3 [JPC-3]
Summary of the method: as §1

LC-2-ad = system: LC-2-ad
Summary of the method: as §1

LCLC-97TM1 = system: LCLC-97TM1
Summary of the method: as §1

NCI-H838 = system: NCI-H838
Summary of the method: as §1

NCI-H1651 = system: NCI-H1651
Summary of the method: as §1

SK-MES-1 = system: SK-MES-1
Summary of the method: as §1

LK-2 = system: LK-2
Summary of the method: as §1

ChaGo-K-1 = system: ChaGo-K-1
Summary of the method: as §1

NCI-H2087 = system: NCI-H2087
Summary of the method: as §1

NCI-H596 = system: NCI-H596
Summary of the method: as §1

LU99A = system: LU99A
Summary of the method: as §1

NCI-H1355 = system: NCI-H1355
Summary of the method: as §1

BEN = system: BEN
Summary of the method: as §1

NCI-H1666 = system: NCI-H1666
Summary of the method: as §1

NCI-H1944 = system: NCI-H1944
Summary of the method: as §1

## Cc1sc2c(c1C)C(c1ccc(Cl)cc1)=N[C@@H](CC(=O)OC(C)(C)C)c1nnc(C)n1-2 [JQ1] + CC1(C)CCC(c2ccc(Cl)cc2)=C(CN2CCN(c3ccc(C(=O)NS(=O)(=O)c4ccc(N[C@H](CCN5CCOCC5)CSc5ccccc5)c(S(=O)(=O)C(F)(F)F)c4)cc3)CC2)C1 [Navitoclax] (partner 0.5 µM)
HCC-78; first compound 0.04 µM
  relative viability: 0.799
HCC-78; first compound 0.1265 µM
  relative viability: 0.761
HCC-78; first compound 0.4 µM
  relative viability: 0.465
HCC-78; first compound 1.265 µM
  relative viability: 0.285
HCC-78; first compound 4 µM
  relative viability: 0.242
NCI-H1975; first compound 0.04 µM
  relative viability: 1.1
NCI-H1975; first compound 0.1265 µM
  relative viability: 0.715
NCI-H1975; first compound 0.4 µM
  relative viability: 0.821
NCI-H1975; first compound 1.265 µM
  relative viability: 0.336
NCI-H1975; first compound 4 µM
  relative viability: 0.266
LXF-289; first compound 0.04 µM
  relative viability: 0.964
LXF-289; first compound 0.1265 µM
  relative viability: 0.975
LXF-289; first compound 0.4 µM
  relative viability: 0.863
LXF-289; first compound 1.265 µM
  relative viability: 0.731
LXF-289; first compound 4 µM
  relative viability: 0.29
PC-3 [JPC-3]; first compound 0.04 µM
  relative viability: 0.781
PC-3 [JPC-3]; first compound 0.1265 µM
  relative viability: 0.877
PC-3 [JPC-3]; first compound 0.4 µM
  relative viability: 0.942
PC-3 [JPC-3]; first compound 1.265 µM
  relative viability: 0.644
PC-3 [JPC-3]; first compound 4 µM
  relative viability: 0.499
LC-2-ad; first compound 0.04 µM
  relative viability: 0.486
LC-2-ad; first compound 0.1265 µM
  relative viability: 0.58
LC-2-ad; first compound 0.4 µM
  relative viability: 0.376
LC-2-ad; first compound 1.265 µM
  relative viability: 0.196
LC-2-ad; first compound 4 µM
  relative viability: 0.175
LCLC-97TM1; first compound 0.1265 µM
  relative viability: 0.329
LCLC-97TM1; first compound 0.4 µM
  relative viability: 0.403
LCLC-97TM1; first compound 1.265 µM
  relative viability: 0.175
LCLC-97TM1; first compound 4 µM
  relative viability: 0.152
NCI-H838; first compound 0.04 µM
  relative viability: 1.1
NCI-H838; first compound 0.1265 µM
  relative viability: 0.592
NCI-H838; first compound 0.4 µM
  relative viability: 0.662
NCI-H838; first compound 1.265 µM
  relative viability: 0.355
NCI-H838; first compound 4 µM
  relative viability: 0.247
NCI-H1651; first compound 0.04 µM
  relative viability: 0.928
NCI-H1651; first compound 0.1265 µM
  relative viability: 0.819
NCI-H1651; first compound 0.4 µM
  relative viability: 0.701
NCI-H1651; first compound 1.265 µM
  relative viability: 0.525
NCI-H1651; first compound 4 µM
  relative viability: 0.439
SK-MES-1; first compound 0.04 µM
  relative viability: 1.29
SK-MES-1; first compound 0.1265 µM
  relative viability: 1.07
SK-MES-1; first compound 0.4 µM
  relative viability: 1.12
SK-MES-1; first compound 1.265 µM
  relative viability: 0.477
SK-MES-1; first compound 4 µM
  relative viability: 0.264
LK-2; first compound 0.04 µM
  relative viability: 0.89
LK-2; first compound 0.1265 µM
  relative viability: 0.785
LK-2; first compound 0.4 µM
  relative viability: 0.562
LK-2; first compound 1.265 µM
  relative viability: 0.255
LK-2; first compound 4 µM
  relative viability: 0.243
ChaGo-K-1; first compound 0.04 µM
  relative viability: 1.08
ChaGo-K-1; first compound 0.4 µM
  relative viability: 0.868
ChaGo-K-1; first compound 1.265 µM
  relative viability: 0.405
ChaGo-K-1; first compound 4 µM
  relative viability: 0.481
NCI-H2087; first compound 0.04 µM
  relative viability: 1.03
NCI-H2087; first compound 0.4 µM
  relative viability: 0.74
NCI-H2087; first compound 1.265 µM
  relative viability: 0.552
NCI-H2087; first compound 4 µM
  relative viability: 0.502
NCI-H596; first compound 0.04 µM
  relative viability: 1.17
NCI-H596; first compound 0.1265 µM
  relative viability: 1.03
NCI-H596; first compound 0.4 µM
  relative viability: 0.421
NCI-H596; first compound 1.265 µM
  relative viability: 0.236
NCI-H596; first compound 4 µM
  relative viability: 0.23
LU99A; first compound 0.04 µM
  relative viability: 0.746
LU99A; first compound 0.1265 µM
  relative viability: 0.699
LU99A; first compound 0.4 µM
  relative viability: 0.201
LU99A; first compound 1.265 µM
  relative viability: 0.137
LU99A; first compound 4 µM
  relative viability: 0.146
NCI-H1355; first compound 0.04 µM
  relative viability: 0.87
NCI-H1355; first compound 0.1265 µM
  relative viability: 0.972
NCI-H1355; first compound 0.4 µM
  relative viability: 0.85
NCI-H1355; first compound 1.265 µM
  relative viability: 0.52
NCI-H1355; first compound 4 µM
  relative viability: 0.476
BEN; first compound 0.04 µM
  relative viability: 0.0812
BEN; first compound 0.1265 µM
  relative viability: 0.082
BEN; first compound 0.4 µM
  relative viability: 0.0765
BEN; first compound 1.265 µM
  relative viability: 0.0678
BEN; first compound 4 µM
  relative viability: 0.0582
NCI-H1666; first compound 0.04 µM
  relative viability: 0.926
NCI-H1666; first compound 0.1265 µM
  relative viability: 0.899
NCI-H1666; first compound 0.4 µM
  relative viability: 0.787
NCI-H1666; first compound 1.265 µM
  relative viability: 0.438
NCI-H1666; first compound 4 µM
  relative viability: 0.513
NCI-H1944; first compound 0.04 µM
  relative viability: 1.02
NCI-H1944; first compound 0.1265 µM
  relative viability: 0.922
NCI-H1944; first compound 0.4 µM
  relative viability: 1.07
NCI-H1944; first compound 1.265 µM
  relative viability: 0.762
NCI-H1944; first compound 4 µM
  relative viability: 0.617
